Reference: paper PMC4827351 (Chemical Science, 2015)

Assays:
[1] = Negative-staining TEM of peptide self-assembly; format: physicochemical; details: for fibrils (TEM), time course of trypsin treatment: room temperature, 10 mM sodium phosphate pH 7.4
Protocol: Fig. 3 TEM analysis of HD6 self-assembly and SEM analysis of bacterial agglutination. Top row: transmission electron micrographs of 10 mM sodium phosphate pH 7.4 (control), 0.4 μM trypsin (control), 20 μM proHD6 in the absence and presence of 0.4 μM trypsin, and 20 μM HD6. All the samples were incubated at room temperature for 1 h. Scale bar = 100 nm. TEM images obtained using 10 mM Tris-maleate pH 6.4 are presented in Fig. S7. ^† Middle row: scanning electron micrographs of E. coli ATCC 25922 treated with 50 mM Tris-maleate pH 6.4 (control), 0.4 μM APMSF-inactivated trypsin (control), 3 μM proHD6, 3 μM trypsin-cleaved proHD6, or 3 μM HD6. Trypsin-cleaved proHD6 was prepared prior to incubation with the bacteria and the residual enzymatic activity was inhibited by APMSF (Experimental section). Following a 30 min incubation, the bacterial suspensions were centrifuged, fixed, and analyzed by SEM. Scale bar = 20 μm. Bottom row: SEM of L. monocytogenes ATCC19115 treated under the same conditions as in the middle row. Scale bar = 20 μm.
The samples for TEM were prepared by following a literature protocol.[15] For each sample, a 5 μL aliquot of peptide solution (20 μM in 10 mM sodium phosphate pH 7.4 or 10 mM Tris-maleate pH 6.4) was placed onto the carbon-coated surface of a copper grid (400 square mesh, Electron Microscopy Sciences). After 1 min, the grid was washed with a 5 μL aliquot of Milli-Q water, stained with a 5 μL aliquot of 2% uranyl acetate (UA, Electron Microscopy Sciences) in Milli-Q water three times, and air-dried for at least 15 min before imaging. A FEI Technai Spirit Transmission Electron Microscope was employed for all TEM imaging (W.M. Keck Microscopy Facility, Whitehead Institute, Cambridge, MA). TEM images were obtained with at least two independently prepared peptides and representative images are presented.
Figure S7. TEM analysis of trypsin-catalyzed proteolysis of proHD6 in Tris-maleate buffer.
Transmission electron micrographs of 10 mM Tris- maleate pH 6.4 (control), 0.4 µM trypsin (control), 20 µM proHD6 in the absence and presence of 0.4 µM trypsin, and 20 µM HD6. All samples were incubated at room temperature for 1 h. Scale bar = […].
Figure S8. Time course of trypsin-catalyzed proteolysis of proHD6 monitored by TEM.
Transmission electron micrographs of 20 µM proHD6 after treatment with 0.4 µM trypsin at room temperature for the indicated time. All the samples were in 10 mM sodium phosphate […]

[2] = Sedimentation equilibrium analytical ultracentrifugation; format: physicochemical; details: 10 mM sodium phosphate; for MW (sedimentation equilibrium, SEDPHAT): pH 7.4, 20 °C, global fit
Protocol: Sedimentation equilibrium (SE) experiments were performed to determine the molecular weight of proHD6. The proHD6 samples were prepared as described in the SV experiments with modification. In a typical set of experiments, proHD6 solutions in Milli-Q water (≈100 μL) prepared in microcentrifuge tubes were lyophilized to dryness. An aliquot (110 μL, pre-filtered, 0.22 μm filter) of 10 mM sodium phosphate buffer adjusted to pH 7.4 was added to each tube to afford solutions with varying concentrations of proHD6 (30, 60, and 120 μM) and transferred to AUC sample cells. The pH of each solution was measured to confirm that each solution remained at pH 7.4. Based on the sedimentation coefficients obtained from the SV experiments, equilibrium profiles were obtained at rotor speeds of 30 000, 36 000, and 42 000 rpm. Once equilibrium was established, two scans with five replicates were recorded. The absorption wavelength for optical detection was 280 nm, and the instrument was maintained at 20 °C.
The details of the experimental setup and data analysis are reported elsewhere.[52] SEDNTERP[53] was employed to calculate the buffer viscosity (η), buffer density (ρ), and the partial specific volume (value of proHD6 at 20 °C) as described in the SV section. The molecular weight of proHD6 was determined by global fitting of the multispeed equilibrium data across all loading concentrations at pH 7.4 using SEDPHAT.[31] The Species Analysis model with mass conservation was employed for data analysis. The bottom of the sample sector was assigned as a floating parameter. To further evaluate whether each least-squares curve-fitting procedure converged to a global minimum, the alternate methods of Simplex, Marquardt–Levenberg, and simulated annealing were employed to assess any change in the global reduced chi-squared value.
Table S5. Molecular weight fitting of SE data for proHD6 by using SEDPHAT.a 95% Confidence Standard Global Reduced Critical Chi-Squared
Sample MW (Da) Intervalb Deviationb Chi-Squared Valuec […]
a All samples were in 10 mM sodium phosphate, pH 7.4. Global fitting used partial specific volume (v) at 20 °C, a solvent density ( ρ) of 0.99967 g/mL, and a solvent viscosity (η) of 1.0061 cP. Viscosity units are in centipoise (cP) (1 poise = 1 gŸ[…] cm-1Ÿ[…]s-1). b Calculated from 1000 iterations of Monte-Carlo analysis. c Calculated at a 95% confidence level.

Q: Which “formation of higher-order oligomers (TEM)” value ([1]; 20 µM peptide, 10 mM sodium phosphate pH 7.4 or 10 mM Tris-maleate pH 6.4, room temperature 1 h, no trypsin) does the source give for “EPLQAEDDPLQAKAYEADAQEQRGANDQDFAVSFAEDASSSLRALGSTRAFTCHCRRSCYSTEYSYGTCTVMGINHRFCCL (disulfide (positions not given here)) [proHD6, 81-residue propeptide of human α-defensin 6, recombinant, from His6-SUMO-proHD6]” here?
A: The value was “no evidence for the formation of higher-order oligomers”.

Q: What about the “fibrils (TEM), time course of trypsin treatment” value ([1]; 20 µM proHD6 + 0.4 µM trypsin, 5 min) of the same sequence?
A: The value was “relatively short fibrils”.

Q: And the “fibrils (TEM), time course of trypsin treatment” value ([1]; 20 µM proHD6 + 0.4 µM trypsin, 60 min)?
A: The value was “closely resembled those of mature HD6”.

Q: What about the “formation of fibrils (TEM) after addition of trypsin” value ([1]; 20 µM proHD6 + 0.4 µM trypsin, room temperature 1 h, 10 mM sodium phosphate pH 7.4 or 10 mM Tris-maleate pH 6.4) of the same sequence?
A: Its value is “fibril-like features comparable to those observed for the mature HD6 peptide”.

Q: And the “molecular weight in solution (sedimentation equilibrium, global analysis)” value ([2]; pH 7.4, 20 °C, 30, 60, 120 µM proHD6, 30 000/36 000/42 000 rpm, A280, SEDPHAT, SD ±230 Da, 95% interval 15 059-15 946 Da)?
A: Its value is 15 549 Da.

Q: What about the “MW (sedimentation equilibrium, SEDPHAT)” value ([2]; Sample 1) of the same sequence?
A: The value was 15176 Da.

Q: And the “MW (sedimentation equilibrium, SEDPHAT)” value ([2]; Sample 2)?
A: Its value is 15351 Da.

Q: And the “MW (sedimentation equilibrium, SEDPHAT)” value ([2]; Sample 3)?
A: Its value is 15549 Da.
